From patent US8796286B2, “Agent for treatment of liver diseases containing pyrazolopyrimidinone derivative” (Mezzion Pharma Co., Ltd., priority 2005, dated 2014)
Read-outs that look alike come from different tables or passages of the source.

Tests used:
[1] = test system: collagen synthesis in hepatic stellate cells; test: Inhibitory effect on collagen synthesis using hepatic stellate cells (RT-PCR for collagen); format: cell-based, Sprague Dawley rat; details: for IC50: Rattus norvegicus, hepatic stellate cells pre-treated with 25 ng/mL PDGF for 24 hours, collagen RT-PCR relative to beta-actin, mean ± standard deviation
Procedure: The following experiments were performed to investigate the inhibition effect of pyrazolopyrimidinone derivative of the present invention on collagen synthesis. Hepatic stellate cells were isolated from Sprague Dawley white male rats (about 300 g in weight, n=10). First, ketamin was injected into the abdominal cavity to anesthetize the rats. The abdomen was opened and heparin was injected into the portal vein. Then, Hank's buffer solution containing 0.02% pronase and 0.015% collagenase was perfused through the liver for a required time to prepare liver in sections. The extracted liver was crushed on a sterilized petri-dish, then put in a buffer solution containing pronase and DNase, and the crushed liver was then homogenized on a sterilized petri-dish. The prepared sample was filtered with 100 μm nylon mesh in a 50 mL tube. Centrifugation was performed with 50 g for 2 minutes to separate nonparenchymal cells in supernatant. Centrifugation was performed again with 450 g at 4° C. for 10 minutes. The precipitate was floated in a buffer solution containing 25 μg/mL of DNase, followed by centrifugation with 450 g at 4° C. for 10 minutes, which was repeated twice. The final precipitate was floated in 21 mL of buffer solution, which was then mixed with 17 mL of 25% OptiPrep to prepare the final solution of 11.2% OptiPrep (1.058 cm^3). Cell suspension solution mixed with OptiPrep was carefully distributed into four 15 mL tubes containing 3 mL of 17% OptiPrep, to which 1 mL of buffer solution was added. Centrifugation was performed with 1400 g at 4° C. for 17 minutes, and as a result, pure hepatic stellate cells were obtained from the opaque layer between the buffer solution and […]. The separated hepatic stellate cells were suspended in DMEM (Dulbecco's Modified Eagle' Media), followed by washing. The cells were suspended again in DMEM supplemented with 10% FBS (Fetal Bovine Serum) and antibiotics, then inoculated into a culture vessel, which was cultured in a 37° C. 5% CO2 incubator. The culture medium was first replaced 24 hours later, and then replaced every 48 hours for sub-culture. Hepatic stellate cells sub-cultured 8 times were grouped by 2×10^5, which were pre-treated with 25 ng/mL of PDGF (Platelet Derived Growth Factor) for 24 hours. […] The total RNA was extracted and RT-PCR (Reverse Transcriptase Polymerase Chain Reaction) for collagen was performed. Based on the relative concentration to beta-actin, a target material was compared with other test samples. In order to determine the inhibitory effect of a target sample on collagen synthesis, inhibitory concentration 50% (IC50) was investigated, and the result is shown in Table 1.

[2] = test system: collagen synthesis in liver, hepatic fibrosis model; test: Liver protective effect in DMN-induced hepatic fibrosis animal model (collagen type I/III immunohistological staining); format: in vivo, Sprague Dawley rat; details: 10 mg/kg/day oral for 2 weeks; for collagen synthesis in hepatic portal veins and around the portal veins (immunohistology): DMN 10 mg/kg i.p. three times per week for 2 weeks, versus solvent control
Procedure: The following experiments were performed to investigate the in vivo collagen synthesis inhibitory effect of pyrazolopyrimidinone derivative of the present invention. Sprague Dawley white female rats (having approximately 300 g in weight) were divided into 4 groups (5 rats per group), and hepatic fibrosis was induced in experimental groups except the wild type control group (Toxicology, 2001). DMN (dimethylnitrosamine) was injected into the abdominal cavity in a dose of 10 mg/kg serially for 2 weeks with a dose frequency of three times per week. […] Only triazole buffer was administered to the solvent control group. Two weeks later, the liver was extracted, fixed in 10% neutral formalin, embedded in paraffin and sliced by […]. Each section was treated with xylene to eliminate paraffin, followed by treatment with alcohol and 0.1% hydrogen peroxide (H2O2). After treatment with PBS, the sections were treated with polyclonal antiserum (Chemicon) against collagen type I diluted by 1:500 and polyclonal antiserum (BioGenesis) against collagen type III diluted by 1:100, at 37° C. for one hour. After washing, samples were treated with 1:200 diluted biotin-conjugated goat anti-rabbit IgG. Immunohistological staining was performed by reacting the samples with avidin-biotin complex (Vector Laboratories), then antigen-antibody complex was marked with 3-amino-9-ethylcarbazole (AEC), whose image was taken by optical microscope now shown in FIG. 1-4. The control group was treated with non-immunized horse serum instead of primary antibody.

[3] = test system: portal hypertension model; test: Portal hypertension animal model (bile duct ligation): portal blood pressure, portal vein diameter, blood flow; format: in vivo, beagle dog; details: 10 mg/kg/day oral for two weeks; for Portal vein diameter / Blood flow rate (portal vein) / Portal blood pressure: bile duct ligated beagle dogs, mean ± standard deviation; for Portal vein diameter: Doppler ultrasonography
Procedure: The following experiments were performed to investigate the effect of pyrazolopyrimidinone derivative on portal hypertension. 12 beagle dogs weighing about 10 kg were divided into four groups (3 dogs were chosen per group randomly), and bile duct ligation was performed on them. […] The animals were fasted for 4 hours, then pentobarbital was intravenously injected to anesthetize them. A tube was inserted through the mesenteric vein to the portal vein to measure portal blood pressure. Doppler ultrasonography was also performed to measure the diameter of portal vein. Blood flow through the portal vein was measured by using the following mathematical chemistry FIG. 1, and the result is shown in Table 2. [formula]

[4] = In vivo pharmacokinetics in portal hypertension patients (plasma HPLC); details: human
Procedure: Nine volunteers among portal hypertension patients who were in the criterion of age from 19-45 and weight over 45 kg (within 15% deviation of ideal body weight) participated in experiments. They were all volunteers who agreed in writing to join the experiments and were trustworthy, cooperative and willing to follow the rules.
A double blind method was used for the experiments. At 8-9 am on the test day, test medicines were given with 240 mL of water to volunteers. For 4 hours from the administration, they were fasted, and lunch was provided 4 hours later and dinner was provided 9 hours later. Blood samples were taken before the administration on the test day and at the 0.5th, 1st, 1.5th, 2nd, 2.5th, 3rd, 4th, 5th, 6th, 8th, 12th, 24th and 32nd hour after the administration. Blood plasma was isolated, followed by HPLC. 100 μL of 0.1 M sodium carbonate and 1.0 mL of ethyl ether were added to 0.5 mL of blood plasma, then mixed well for 1 minute, followed by centrifugation at 12,000 rpm for 3 minutes. Supernatant was obtained and organic solvent was volatilized using speed vac. Then, 100 μL of moving phase was added, followed by stirring.

[5] = test system: experimental cirrhosis models; details: dose-dependently; cited from earlier work
[6] = Solubility (physicochemical properties)
[7] = pKa (physicochemical properties)

CCCc1nn(C)c2c(=O)[nH]c(-c3cc(S(=O)(=O)N4CCN(C)CC4)ccc3OCC)nc12 [Sildenafil, sildenafil]
IC50 [1]: 13.1 ± 2.3 nM
collagen synthesis in hepatic portal veins and around the portal veins (immunohistology) [2]: remarkably inhibited
blood flow rate through portal vein increase compared with solvent treated group [3]: 29.1%
portal blood pressure decrease compared with solvent treated control group [3]: 7%
Portal vein diameter [3]: 7.47 ± 0.21 mm
Blood flow rate (portal vein) [3]: 754.47 ± 80.24 mL/min
Portal blood pressure [3]: 2.93 ± 0.25 kPa
half-life ([4]; plasma, patients with portal hypertension, 50 mg oral, mean ± standard deviation, read-out: Half-life (converted)): 4.5 ± 1.2 h
Portal blood pressure [5]: increases
blood flow through mesenteria [5]: increases

CCCOc1ccc(S(=O)(=O)NCCC2CCCN2C)cc1-c1nc2c(CCC)nn(C)c2c(=O)[nH]1 (stereo not shown) [Pyrazolopyrimidinone derivative, 5-[2-propyloxy-5-(1-methyl-2-pyrrolidinylethyl amidosulfonyl)phenyl]-1-methyl-3-propyl-1,6-dihydro-7H-pyrazolo(4,3-d)pyrimidin-7-one]
IC50 [1]: 0.8 ± 0.2 nM
collagen synthesis inhibitory effect, times higher than sildenafil ([1]; ratio of IC50 versus sildenafil): 16 times
collagen synthesis inhibitory effect, times higher than vardenafil ([1]; ratio of IC50 versus vardenafil): 10 times
collagen synthesis inhibitory effect, times as excellent as other conventional PDE 5 inhibitors ([1]; versus other conventional PDE 5 inhibitors (Table 1)): 10-16 times
inhibition of collagen synthesis compared with the sildenafil treated group ([2]; DMN rats): greater than that in the sildenafil treated group
collagen synthesis in hepatic portal veins and around the portal veins (immunohistology) [2]: remarkably inhibited
blood flow rate through portal vein increase compared with solvent treated group [3]: 59.9%
portal blood pressure decrease compared with solvent treated control group [3]: 21%
Portal vein diameter [3]: 7.70 ± 0.26 mm
Blood flow rate (portal vein) [3]: 932.31 ± 89.83 mL/min
Portal blood pressure [3]: 2.50 ± 0.20 kPa
half-life, fold longer than vardenafil ([4]; in vivo): two fold
half-life ([4]; in vivo, po, 100 mg): 15.1 ± 3.5 h
solubility in acetic acid, methanol and chloroform ([6]; acetic acid, methanol and chloroform): soluble
solubility in water ([6]; water): insoluble
pKa1 [7]: 6.5
pKa2 [7]: 12.5

CCCc1nc(C)c2c(=O)[nH]c(-c3cc(S(=O)(=O)N4CCN(CC)CC4)ccc3OCC)nn12 [Vardenafil, vardenafil]
IC50 [1]: 7.8 ± 1.7 nM
blood flow rate through portal vein increase compared with solvent treated group [3]: 24.8%
portal blood pressure decrease compared with solvent treated control group [3]: 9%
Portal vein diameter [3]: 7.43 ± 0.21 mm
Blood flow rate (portal vein) [3]: 729.29 ± 83.23 mL/min
Portal blood pressure [3]: 2.87 ± 0.25 kPa
half-life ([4]; plasma, patients with portal hypertension, 10 mg oral, mean ± standard deviation, read-out: Half-life (converted)): 6.3 ± 2.1 h
